ChEMBL document CHEMBL6114981, “Research progress of flavonoids targeting estrogen receptor in the treatment of breast cancer” (Bioorg Med Chem, 2025)

Columns and labels:
Ishikawa = assay: Antiproliferative activity against human Ishikawa cells assessed as reduction in cell viability incubated for 48 hrs by MTT assay
Aromatase = molecular target: T1, Aromatase (Homo sapiens, UniProt P11511); assay: Binding affinity to human placental aromatase in MCF7 cells assessed as inhibition constant
T1 sequence (P11511 whole entry): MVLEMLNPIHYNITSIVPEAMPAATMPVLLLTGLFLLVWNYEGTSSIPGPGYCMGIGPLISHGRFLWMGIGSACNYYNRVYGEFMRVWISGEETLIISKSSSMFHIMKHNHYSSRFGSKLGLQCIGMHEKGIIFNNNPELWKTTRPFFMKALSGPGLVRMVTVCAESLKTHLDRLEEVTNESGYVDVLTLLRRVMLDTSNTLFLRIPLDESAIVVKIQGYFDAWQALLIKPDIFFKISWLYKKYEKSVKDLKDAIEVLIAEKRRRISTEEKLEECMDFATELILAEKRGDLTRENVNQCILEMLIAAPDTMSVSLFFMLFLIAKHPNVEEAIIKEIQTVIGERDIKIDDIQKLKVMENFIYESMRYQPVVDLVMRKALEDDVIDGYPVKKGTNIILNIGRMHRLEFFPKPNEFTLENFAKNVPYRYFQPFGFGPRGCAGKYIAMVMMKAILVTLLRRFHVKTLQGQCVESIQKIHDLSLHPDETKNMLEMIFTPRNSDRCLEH

[1] = Downregulation of ERalpha expression in human MCF7 cells measured for 24 hrs by Western blot analysis; conditions: MCF7, 24 h
MCF7 [2] = assay: Antiproliferative activity against human MCF-7 cells assessed as reduction in cell viability incubated for 48 hrs by MTT assay; conditions: MCF7, 48 h
MCF7 [3] = assay: Cytotoxicity against human MCF7 cells assessed as reduction in cell viability incubated for 24 hrs by MTT assay; conditions: MCF7, 24 h
MCF7 [4] = assay: Antiproliferative activity against human MCF7 cells
MCF7 [5] = assay: Cytotoxicity against human MCF7 cells
HEK-293T = assay: Cytotoxicity against HEK293T cells; conditions: Homo sapiens
MDA-MB-231 = assay: Antiproliferative activity against human MDA-MB-231 cells assessed as reduction in cell viability by MTT assay
MCF7 [6] = assay: Antiproliferative activity against human MCF7 cells assessed as reduction in cell viability by MTT assay

COc1cc2c(cc1C(=O)c1ccc(OCCN3CCCCC3)cc1)C=C(c1ccccc1)C(C)(C)O2
IC50 (Ishikawa): 17700 nM

O=C1C[C@@H](c2ccccc2)Oc2cc(O)cc(O)c21 [PINOCEMBRIN]
Ki (Aromatase): 10800 nM

O=C(O)/C=C/c1ccc(Cc2c(-c3ccccc3)c(=O)oc3cc(O)ccc23)cc1
IC50 [1]: 1180 nM

O=c1oc2cc(O)ccc2c(Oc2ccc(OCCN3CCCCC3)cc2)c1-c1ccc(F)cc1
IC50 (MCF7 [2]): 2190 nM

CC1=C(c2cc(F)cc(F)c2)[C@H](c2ccc(/C=C/CN3CC(CF)C3)cc2)Oc2cc(O)ccc21 [BEXIRESTRANT]
IC50 (MCF7 [3]): 0.3 nM

CN1CCN(c2ccc(-c3cc(=O)c4ccccc4o3)cc2)CC1
IC50 (MCF7 [4]): 2720 nM

C[C@@H]1OC(Oc2cc(O)c3c(=O)c(O[C@H]4OC[C@@](O)(CO)[C@@H]4O)c(-c4ccc(O)cc4)oc3c2)[C@H](O)[C@H](O)[C@H]1O (stereo partly specified)
IC50 (MCF7 [3]): 48 nM

COc1cc(O)c2c(=O)cc(-c3ccc(OC)c(-c4c(O)cc(O)c5c(=O)cc(-c6ccc(O)cc6)oc45)c3)oc2c1 [GINKGETIN]
IC50 (MCF7 [5]): 10000 nM

Cc1cc(OC(F)(F)F)ccc1-c1c(Oc2ccc(/C=C/C(=O)O)cc2)c2ccc(O)cc2oc1=O
IC50 [1]: 3 nM

COc1ccc(-c2cc(=O)c3c(O)cc(OC)cc3o2)cc1 [APIGENIN DIMETHYLETHER]
Ki (Aromatase): 2100 nM

COc1cc(O)c2c(c1)OC(c1ccc(O)cc1)CC2=O (single isomer, unassigned) [SAKURANETIN]
Ki (Aromatase): 1200 nM

CC1=C(c2cc(F)cc(F)c2)[C@@H](c2ccc(/C=C/CN3CC(CF)C3)cc2)Oc2cc(O)ccc21
IC50 (MCF7 [3]): 69.9 nM

O=c1c(O)c(-c2ccc(O)c(O)c2)oc2cc(O)cc(O)c12 [QUERCETIN]
IC50 (HEK-293T): 1200 nM

CC1=C(c2ccc(OC(=O)C(C)(C)C)cc2)[C@H](c2ccc(OCCN3CCCCC3)cc2)Oc2cc(OC(=O)C(C)(C)C)ccc21
IC50 (MCF7 [4]): 0.58 nM

C=C(C)[C@H]1Cc2c(ccc3c2O[C@@H]2COc4cc(OC)c(OC)cc4[C@@H]2C3=O)O1 [ROTENONE]
Ki (Aromatase): 300 nM

COc1ccc(C(=O)C2=C(Oc3ccc(/C=C/C(=O)O)cc3)c3ccc(O)cc3OC2)cc1
IC50 [1]: 100 nM

COc1ccc(-c2c(C(=O)c3ccc(OCCN4CCCCC4)cc3)c3ccc(OC)cc3oc2=O)cc1
IC50 (MDA-MB-231): 12700 nM
IC50 (MCF7 [6]): 5700 nM

O=c1c(O)c(-c2ccc(O)c(O)c2)oc2cc(O)ccc12 [FISETIN]
IC50 (MCF7 [5]): 8500 nM

Cc1cc(OC(F)(F)F)ccc1-c1c(Oc2ccc(/C=C/C(=O)O)cc2)c2ccccc2oc1=O
IC50 [1]: 810 nM

CC1=C(c2ccc(O)cc2)[C@H](c2ccc(OCCN3CCCCC3)cc2)Oc2cc(O)ccc21 [ACOLBIFENE]
IC50 (MCF7 [4]): 0.32 nM
